Data published in patent publication US5262417A, “Antibacterial quinolone compounds” (The Upjohn Company, priority 1991, dated 1993).
Converted amounts (≈) assume the structure as drawn. Like-named read-outs stand apart in the source and are kept apart here.

Key:
Assay in all cases: Minimum inhibitory concentration (MIC) by agar dilution
Type in all cases: cell-based
[1] = test system: Enterobacter cloacae; conditions: 20 h, read-out: MINIMUM INHIBITORY CONCENTRATION
Experimental: (§1) Briefly, MIC values are determined in unsupplemented Mueller Hinton Agar (MHA). The compounds tested are diluted serially into molten MHA at 47° C. The agar is poured into petri dishes and allowed to harden. The various bacteria used for testing are grown overnight on MHA at 35° C. and transferred to Trypticase soy broth (TSB) until a turbidity of 0.5 McFarland standard is obtained. The bacteria are diluted one to 20 in TSB and inoculated on the plates (1 μl using a Steers replicator).
as §1, with “Compounds of this invention can also be tested for in vitro antimicrobial activity using standard testing procedures such as the determination of minimum inhibitory concentration (MIC) by agar dilution as described in "Methods for Dilution Antimicrobial Susceptibility Tests for Bacteria That Grow Aerobically" (MFT) published Jan. […] Briefly,” for “Briefly,”, “(1μl” for “(1 μl”

[2] = test system: Acinetobacter calcoaceticus; conditions: Acinetobacter calcoaceticus, 20 h, read-out: MINIMUM INHIBITORY CONCENTRATION, Cult No. 12170, MHA
Experimental: as §1, with “The antibacterial activity of the compounds of Formula IC was determined by using standard testing procedures such as the determination of minimum inhibitory concentration (MIC) by agar dilution as described in "Methods for Dilution Antimicrobial Susceptibility Tests for Bacteria That Grow Aerobically" (MFT) published January 1983 by the National Committee for Clinical Laboratory Standards, 771 East Lancaster Avenue, Villanova, Pa. 19084, USA. Briefly,” for “Briefly,”
(§2) Compounds of this invention can also be tested for in vitro antimicrobial activity using standard testing procedures such as the determination of minimum inhibitory concentration (MIC) by agar dilution as described in "Methods for Dilution Antimicrobial Susceptibility Tests for Bacteria That Grow Aerobically" (MFT) published Jan. 1983 by the National Committee for Clinical Laboratory Standards, 771 East Lancaster Avenue, Villanova, Penna. 19084, USA. Briefly, MIC values are determined in unsupplemented Mueller Hinton Agar (MHA). The compounds tested are diluted serially into molten MHA at 47° C. The agar is poured into petri dishes and allowed to harden. The various bacteria used for testing are grown overnight on MHA at 35° C. and transferred to Trypticase soy broth (TSB) until a turbidity of 0.5 McFarland standard is obtained. The bacteria are diluted one to 20 in TSB and inoculated on the plates (1μl using a Steers replicator). […] The MIC test results of selected of Formula B compounds of this invention are found in Tables B2-B9.

[3] = test system: Citerobacter freundii; conditions: 20 h, read-out: MINIMUM INHIBITORY CONCENTRATION
Experimental: (§3) The antibacterial activity of the compounds of Formula IC was determined by using standard testing procedures such as the determination of minimum inhibitory concentration (MIC) by agar dilution as described in "Methods for Dilution Antimicrobial Susceptibility Tests for Bacteria That Grow Aerobically" (MFT) published January 1983 by the National Committee for Clinical Laboratory Standards, 771 East Lancaster Avenue, Villanova, Pa. 19084, USA. Briefly, MIC values are determined in unsupplemented Mueller Hinton Agar (MHA). The compounds tested are diluted serially into molten MHA at 47° C. The agar is poured into petri dishes and allowed to harden. The various bacteria used for testing are grown overnight on MHA at 35° C. and transferred to Trypticase soy broth (TSB) until a turbidity of 0.5 McFarland standard is obtained. The bacteria are diluted one to 20 in TSB and inoculated on the plates (1 μl using a Steers replicator).
as §2

[4] = test system: Escherichia coli; conditions: Escherichia coli, 20 h
Experimental: as §3, §2

[5] = test system: Klebsiella pneumoniae; conditions: 20 h, read-out: MINIMUM INHIBITORY CONCENTRATION
Experimental: as §3, §2

[6] = test system: Proteus penneri; conditions: Proteus penneri, 20 h, read-out: MINIMUM INHIBITORY CONCENTRATION, Cult No. 9679, MHA
Experimental: as §3, §2

[7] = test system: Pseudomonas aeruginosa; conditions: Pseudomonas aeruginosa, 20 h
Experimental: as §3, §2

[8] = test system: Serratia marcescens; conditions: 20 h, read-out: MINIMUM INHIBITORY CONCENTRATION
Experimental: as §3, §2

[9] = test system: Staphylococcus aureus; conditions: Staphylococcus aureus, 20 h
Experimental: as §3, §2

[10] = test system: Staphylococcus epidermidis; conditions: 20 h, read-out: MINIMUM INHIBITORY CONCENTRATION
Experimental: as §3, §2

[11] = test system: Streptococcus faecalis; conditions: Enterococcus faecalis, 20 h, read-out: MINIMUM INHIBITORY CONCENTRATION
Experimental: as §3, §2

[12] = test system: Streptococcus pneumoniae; conditions: Streptococcus pneumoniae, 20 h, read-out: MINIMUM INHIBITORY CONCENTRATION, Cult No. 41, MHA
Experimental: as §3, §2

[13] = test system: Streptococcus pyogenes; conditions: Streptococcus pyogenes, 20 h, read-out: MINIMUM INHIBITORY CONCENTRATION, Cult No. 152, MHA
Experimental: as §3, §2

[14] = read-out: MINIMUM INHIBITORY CONCENTRATION, Cult No. 6674, MHA
[15] = read-out: MINIMUM INHIBITORY CONCENTRATION, Cult No. 9451, MHA
[16] = read-out: MINIMUM INHIBITORY CONCENTRATION, Cult No. 9855, MHA
[17] = read-out: MINIMUM INHIBITORY CONCENTRATION, Cult No. 9952, MHA
[18] = read-out: MINIMUM INHIBITORY CONCENTRATION, Cult No. 6676, MHA
[19] = read-out: MINIMUM INHIBITORY CONCENTRATION, Cult No. 9191, MHA
[20] = read-out: MINIMUM INHIBITORY CONCENTRATION, Cult No. 12120, MHA
[21] = read-out: MINIMUM INHIBITORY CONCENTRATION, Cult No. 6685, MHA
[22] = read-out: MINIMUM INHIBITORY CONCENTRATION, Cult No. 9213, MHA
[23] = read-out: MINIMUM INHIBITORY CONCENTRATION, Cult No. 9218, MHA
[24] = read-out: MINIMUM INHIBITORY CONCENTRATION, Cult No. 9271, MHA

Compound | MIC [1] | MIC [2] | MIC [3] | MIC [4, 14] | MIC [4, 15] | MIC [4, 16] | MIC [4, 17] | MIC [5] | MIC [6] | MIC [7, 18] | MIC [7, 19] | MIC [7, 20] | MIC [8] | MIC [9, 21] | MIC [9, 22] | MIC [9, 23] | MIC [9, 24] | MIC [10] | MIC [11] | MIC [12] | other results
NC1CCN(c2nc3c(cc2F)c(=O)c(C(=O)O)cn3C23CC(C2)C3)C1 (racemic) [No. 36, 7-(3-amino-1-pyrrolidinyl)-1-(bicyclo[1.1.1]pent-1-yl)-1,4-dihydro-6-fluoro-4-oxo-1,8-naphthyridine-3-carboxylic acid] | 0.03 µg/mL (≈ 0.0837 µM) | 0.125 µg/mL (≈ 0.349 µM) | 0.03 µg/mL (≈ 0.0837 µM) | 0.03 µg/mL (≈ 0.0837 µM) | 0.03 µg/mL (≈ 0.0837 µM) | 0.06 µg/mL (≈ 0.167 µM) | 0.03 µg/mL (≈ 0.0837 µM) | 0.06 µg/mL (≈ 0.167 µM) | 0.25 µg/mL (≈ 0.698 µM) | 1 µg/mL (≈ 2.79 µM) | 0.5 µg/mL (≈ 1.4 µM) | 0.25 µg/mL (≈ 0.698 µM) | 0.125 µg/mL (≈ 0.349 µM) | 0.125 µg/mL (≈ 0.349 µM) | 0.125 µg/mL (≈ 0.349 µM) | 0.125 µg/mL (≈ 0.349 µM) | 0.125 µg/mL (≈ 0.349 µM) | 0.06 µg/mL (≈ 0.167 µM) | 0.5 µg/mL (≈ 1.4 µM) | 0.5 µg/mL (≈ 1.4 µM) | MIC [13]: 0.25 µg/mL (≈ 0.698 µM)
NC1CCN(c2c(F)cc3c(=O)c(C(=O)O)cn(C45CC(C4)C5)c3c2F)C1 (racemic) [No. 84, 7-(3-amino-1-pyrrolidinyl)-1-(bicyclo[1.1.1]pent-1-yl)-1,4-dihydro-6,8-difluoro-4-oxo-3-quinolinecarboxylic acid] | 0.06 µg/mL (≈ 0.16 µM) | 0.125 µg/mL (≈ 0.333 µM) | 0.36 µg/mL (≈ 0.959 µM) | 0.03 µg/mL (≈ 0.0799 µM) | 0.06 µg/mL (≈ 0.16 µM) | 0.06 µg/mL (≈ 0.16 µM) | 0.03 µg/mL (≈ 0.0799 µM) | 0.06 µg/mL (≈ 0.16 µM) | 0.25 µg/mL (≈ 0.666 µM) | 1 µg/mL (≈ 2.66 µM) | 0.5 µg/mL (≈ 1.33 µM) | 0.5 µg/mL (≈ 1.33 µM) | 0.125 µg/mL (≈ 0.333 µM) | 0.06 µg/mL (≈ 0.16 µM) | 0.125 µg/mL (≈ 0.333 µM) | 0.125 µg/mL (≈ 0.333 µM) | 0.125 µg/mL (≈ 0.333 µM) | 0.125 µg/mL (≈ 0.333 µM) | 0.5 µg/mL (≈ 1.33 µM) | 0.5 µg/mL (≈ 1.33 µM) | MIC [13]: 0.25 µg/mL (≈ 0.666 µM)
O=C(O)c1cn(C23CC(C2)C3)c2c(F)c(N3CCNCC3)c(F)cc2c1=O [No. 1, 1-(bicyclo[1.1.1]pent-1-yl)-6,8-difluoro-1,4-dihydro-4-oxo-7-(1-piperazinyl)-3-quinolinecarboxylic acid] | 0.06 µg/mL (≈ 0.16 µM) | 0.25 µg/mL (≈ 0.666 µM) | 0.06 µg/mL (≈ 0.16 µM) | 0.06 µg/mL (≈ 0.16 µM) | 0.06 µg/mL (≈ 0.16 µM) | 0.06 µg/mL (≈ 0.16 µM) | 0.06 µg/mL (≈ 0.16 µM) | 0.125 µg/mL (≈ 0.333 µM) | 0.5 µg/mL (≈ 1.33 µM) | 2 µg/mL (≈ 5.33 µM) | 1 µg/mL (≈ 2.66 µM) | 1 µg/mL (≈ 2.66 µM) | 0.25 µg/mL (≈ 0.666 µM) | 0.5 µg/mL (≈ 1.33 µM) | 1 µg/mL (≈ 2.66 µM) | 0.5 µg/mL (≈ 1.33 µM) | 0.5 µg/mL (≈ 1.33 µM) | 0.25 µg/mL (≈ 0.666 µM) | 2 µg/mL (≈ 5.33 µM) | 2 µg/mL (≈ 5.33 µM) | MIC ([9]; read-out: MINIMUM INHIBITORY CONCENTRATION, Cult No. 3665, MHA): 0.5 µg/mL (≈ 1.33 µM); MIC [13]: 2 µg/mL (≈ 5.33 µM)
